Reference: patent US7160894B2, “Tricyclic compound” (Asahi Kasei Pharma Corporation, priority 2003, dated 2007)

tested on: phosphorylated myosin regulatory light chain in neutrophils; test: Action on amount of phosphorylated myosin regulatory light chain in the cells (Test Example 1); type: cell-based; conditions: Neutrophil, 5 min; human neutrophils, reaction at 25° C. for 5 minutes; read-out: concentration at which the phosphorylation of myosin regulatory light chain is inhibited (IC50)
Experimental: A volume of 50 to 100 ml of peripheral blood collected from healthy volunteers was centrifuged by using Mono-Poly separator solution (Dainippon Pharmaceutical) to prepare a neutrophil containing fraction. The neutrophils were washed with PBS(−) and resuspended in Hanks' Balanced Salt Solution (HBSS+, Gibco) to prepare a cell suspension (8×10^6/ml). The cell suspension was diluted to 5×10^6/ml, introduced into Eppendorf tubes in a volume of 0.4 ml each, then 0.1 ml each of solutions of a test compound at various concentrations were added to the suspension and allowed to react at 25° C. for 5 minutes. After the reaction, 0.1 ml of trichloroacetic acid solution was added to each reaction, the reaction mixture was gently shaken and centrifuged at 12,000 rpm (4° C., 5 minutes), and the supernatant was removed. Subsequently, 3 μl of 1 M Tris solution was added to the residue, the mixture was further mixed with 50 μl of extraction buffer (8 M urea, 0.02% 2-mercaptoethanol, 0.002% bromophenol blue) and left stand at room temperature for 1 hour. Then, the reaction mixture was loaded on a spin column (0.45 μm, Millipore) to remove the insoluble solids and a sample buffer for SDS polyacrylamide gel electrophoresis (25 mM, Tris-HCl pH 6.8, 2.5% 2-mercaptoethanol, 2% sodium dodecylsulfate, 5% sucrose, 0.002% bromophenol blue as final concentrations) was added, and 10 μl of each sample was subjected to electrophoresis.
The gel after the electrophoresis was blotted on a nitrocellulose membrane (BioRad), blocked with 5% skim milk, and reacted successively with antibodies pLC1 (Sakurada K. et al, Am. J. Physiol., 274, C1563–C1572 (1998)), which specifically recognize the phosphorylated myosin regulatory light chain, and donkey anti-mouse IgG (Chemicon) conjugated with horseradish peroxidase. The band of the phosphorylated myosin regulatory light chain was detected on a film by using ECL Plus Kit (Amersham Pharmacia Biotech). This band was subjected to quantification using a densitometer. By using this value, the inhibitory ratio (%) for phosphorylation of the myosin regulatory light chain was calculated by using the following equation. Phosphorylation inhibition ratio (%)=1−(Band intensity of phosphorylated myosin regulatory light chain with addition of the test compound/Band intensity of phosphorylated myosin regulatory light chain without addition of the test compound)×100
Further, the phosphorylation inhibition ratio was calculated with changing the concentrations of the test compound, and a compound concentration providing an inhibition ratio of 50% was obtained as IC50.

IC50 [µM]	Compound
≤ 40	Clc1ncc2c3c(cccc13)N(C1CCNCC1)CC2 [Example 61, 6-Chloro-1-(piperidin-4-yl)-2,3-dihydro-1H-1,5-diazaphenalene]

tested on: ovalbumin-induced constriction of respiratory tract; test: Respiratory tract constriction suppressing action, intravenous administration (Test Example 3); type: in vivo, Hartley guinea pigs; conditions: ovalbumin-immunized guinea pigs, administered from cannula in hind leg vein, measured for 15 minutes
Experimental: Four-week old Hartley guinea pigs (male) were immunized by intraperitoneal administration of ovalbumin (Sigma, Grade V) in amounts of 1 mg for each animal on the day on which the experiment was started, 3 mg for each animal after 2 days, and 10 mg for each animal after 4 days. Twelve to fourteen days after the final immunization, the ovalbumin-immunized guinea pigs were anesthetized by intraperitoneal administration of about 40 mg/kg of pentobarbital (Somnopentyl), and the tracheas were taken out. Subsequently, a cannula (SP-110, Natsume) was inserted into each trachea, and one end of the cannula was connected to an artificial respirator (Model-b83, Harvard). The aeration conditions were set at 6 ml per kilogram and 60 times per 1 minute. Further, a cannula for medicament administration (JMS wing needle 23G 3/4) was inserted into a hind leg vein. Myoblock (Organon Technica) was administered in an amount of 0.5 mg/kg from the cannula inserted into the hind leg vein to stop the spontaneous breathing, and after 2 or 3 minutes, 0.3 mg/kg of ovalbumin was administered to induce constriction of respiratory tract. The increase of airway resistance value 2 minutes after the induction (measurement apparatuses: pressure transducer TR-603T, respiratory amplifier AR-601G, and recorder RTA-3100, Nihon Kohden Corp.) was confirmed to be above 80 cm H2O or higher, and then, a solution of a test medicament was administered from the cannula inserted into the hind leg vein, and the airway resistance value was continuously measured for 15 minutes after the administration to determine the effect.

Compound	improvement of constriction of respiratory tract (airway resistance value)
Cl.NCCCN1CCC(N2CCc3cncc4cccc2c34)CC1 [Example 15]	significantly improved the constriction of respiratory tract
Cl.NCCN1CCC(N2CCc3cncc4cccc2c34)CC1 [Example 14]	significantly improved the constriction of respiratory tract
Cl.c1cc2c3c(cncc3c1)CCN2C1CCNCC1 [Example 11]	significantly improved the constriction of respiratory tract

tested on: ovalbumin-induced constriction of respiratory tract; test: Respiratory tract constriction suppressing action, administration by inhalation (Test Example 3); type: in vivo, Hartley guinea pigs; conditions: ovalbumin-immunized guinea pigs, 2 ml solution by inhalation over 5 minutes
Experimental: Four-week old Hartley guinea pigs (male) were immunized by intraperitoneal administration of ovalbumin (Sigma, Grade V) in amounts of 1 mg for each animal on the day on which the experiment was started, 3 mg for each animal after 2 days, and 10 mg for each animal after 4 days. Further, the respiratory tract constriction suppression action of the test compounds was also evaluated by inhalation. Twelve to fourteen days after the final sensitization, 10 mg/kg of pyrilamine (Sigma), 5 mg/kg of indomethacin (Wako), or 0.1 mg/kg of propranolol (Sigma) was intraperitoneally administered. Then, 30 minutes after the administration, a 0.1% ovalbumin aqueous solution was inhaled by using a pressurization type nebulizer (PARI-IS2) to induce constriction of the respiratory tract. Ten minutes after the induction, 2 ml of a solution of a test compound prepared at various concentrations was filled in the aforementioned nebulizer, and administered by inhalation over 5 minutes. After the administration of pyrilamine and other drugs, airway resistance value was continuously measured to determine effectiveness.

Compound	improvement of constriction of respiratory tract (airway resistance value)
Cl.NCCCN1CCC(N2CCc3cncc4cccc2c34)CC1 [Example 15]	significantly improved the constriction of respiratory tract
Cl.NCCN1CCC(N2CCc3cncc4cccc2c34)CC1 [Example 14]	significantly improved the constriction of respiratory tract
Cl.c1cc2c3c(cncc3c1)CCN2C1CCNCC1 [Example 11]	significantly improved the constriction of respiratory tract

tested on: intraocular pressure; test: Intraocular pressure reducing action (Test Example 4); type: in vivo, Japanese white rabbit; conditions: rabbit, 50 μl of aqueous solution dropped to the left eye
Experimental: A Japanese white rabbit having a body weight of about 2 kg was placed in a positioner and naturalized for one week before the experiment. An ophthalmologic local anesthesant (Benoxil) was administered to the left eye, and then intraocular pressure was measured by using a tonometer (Classic 30, Solan). The initial value of the intraocular pressure was measured, then 50 μl of an aqueous solution of a test compound was dropped to the left eye at various concentrations, and the intraocular pressure was measured with passage of time.

Compound	intraocular pressure reducing action
CC(=O)NCCCN[C@H]1CC[C@H](N2CCc3cnc(O)c4cccc2c34)CC1.Cl [Example 87]	significant intraocular pressure reducing action
Cl.OCCN1CCC(N2CCc3cncc4cccc2c34)CC1 [Example 12]	significant intraocular pressure reducing action
Cl.NCCCN1CCC(N2CCc3cncc4cccc2c34)CC1 [Example 15]	significant intraocular pressure reducing action
CCC(=O)NCCCN[C@H]1CC[C@H](N2CCc3cnc(O)c4cccc2c34)CC1.Cl [Example 88]	significant intraocular pressure reducing action
Cl.NCCN1CCC(N2CCc3cncc4cccc2c34)CC1 [Example 14]	significant intraocular pressure reducing action
CN1CCC(N2CCc3cncc4cccc2c34)CC1 [Example 52]	significant intraocular pressure reducing action
Cl.c1cc2c3c(cncc3c1)CCN2C1CCNCC1 [Example 11]	significant intraocular pressure reducing action
Cl.OCCCN[C@H]1CC[C@H](N2CCc3cnc(O)c4cccc2c34)CC1 [Example 79]	significant intraocular pressure reducing action
Cl.Oc1ncc2c3c(cccc13)N(C1CCNCC1)CC2 [Example 62]	significant intraocular pressure reducing action
N[C@H]1CC[C@H](N2CCc3cnc(O)c4cccc2c34)CC1 [Example 77]	significant intraocular pressure reducing action
CC(=O)NCCCN1CCC(N2CCc3cncc4cccc2c34)CC1 [Example 47]	significant intraocular pressure reducing action
Cl.OCCCN1CCC(N2CCc3cnc(O)c4cccc2c34)CC1 [Example 64]	significant intraocular pressure reducing action
CCC(=O)NCCN[C@H]1CC[C@H](N2CCc3cnc(O)c4cccc2c34)CC1.Cl [Example 83]	significant intraocular pressure reducing action
Cl.OCCN1CCC(N2CCc3cnc(O)c4cccc2c34)CC1 [Example 63]	significant intraocular pressure reducing action
CCC(=O)NCCCN1CCC(N2CCc3cnc(O)c4cccc2c34)CC1 [Example 73]	significant intraocular pressure reducing action
CCC(=O)NCCN1CCC(N2CCc3cnc(O)c4cccc2c34)CC1 [Example 68]	significant intraocular pressure reducing action
Cl.c1cc2c3c(cncc3c1)CCN2C1CCNC1 (stereo not drawn) [Example 1]	significant intraocular pressure reducing action
CC(=O)NCCN1CCC(N2CCc3cnc(O)c4cccc2c34)CC1 [Example 67]	significant intraocular pressure reducing action
CC(=O)NCCN[C@H]1CC[C@H](N2CCc3cnc(O)c4cccc2c34)CC1.Cl [Example 82]	significant intraocular pressure reducing action
CC(C)(C)C(=O)NCCCN1CCC(N2CCc3cnc(O)c4cccc2c34)CC1 [Example 76]	significant intraocular pressure reducing action
CNCCN1CCC(N2CCc3cncc4cccc2c34)CC1 [Example 57]	significant intraocular pressure reducing action
Cl.OCCN[C@H]1CC[C@H](N2CCc3cncc4cccc2c34)CC1 [Example 22]	significant intraocular pressure reducing action
Cl.OCCN[C@H]1CC[C@H](N2CCc3cnc(O)c4cccc2c34)CC1 [Example 78]	significant intraocular pressure reducing action
Cl.N#CCN1CCC(N2CCc3cncc4cccc2c34)CC1 [Example 18]	significant intraocular pressure reducing action
CCCC(=O)NCCN[C@H]1CC[C@H](N2CCc3cnc(O)c4cccc2c34)CC1.Cl [Example 84]	significant intraocular pressure reducing action
Cl.OCCCN1CCC(N2CCc3cncc4cccc2c34)CC1 [Example 13]	significant intraocular pressure reducing action
Cl.N[C@H]1CC[C@H](N2CCc3cncc4cccc2c34)CC1 [Example 21]	significant intraocular pressure reducing action
Cl.N[C@H]1CC[C@@H](N2CCc3cncc4cccc2c34)CC1 [Example 31]	significant intraocular pressure reducing action
CC(=O)NCCCN1CCC(N2CCc3cnc(O)c4cccc2c34)CC1 [Example 72]	significant intraocular pressure reducing action
